Reference: ChEMBL document CHEMBL1201862, “PubChem BioAssay data set” (2004)
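96-well plates; 48 h exposure; 5 concentrations. Endpoints by linear interpolation between flanking doses. Not reached: highest tested concentration assigned. Abbreviation: GI50, concentration required for 50% inhibition of growth.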 Activity calls are given as the source filed them. Cut-off read from the data, not from the text of the source: active = GI50 up to about 1.1 µM and inactive = higher.

Key:
Test in all cases: inhibition of tumour cell growth, NCI panel, 48 h
CCRF-CEM = test system: CCRF-CEM
SW-620 = test system: SW-620
UACC-62 = test system: UACC-62
SK-MEL-5 = test system: SK-MEL-5
UACC-257 = test system: UACC-257
SR = test system: SR
SK-MEL-2 = test system: SK-MEL-2
IGROV-1 = test system: IGROV-1
RXF 393 = test system: RXF 393
HOP-92 = test system: HOP-92
KM12 = test system: KM12
SK-OV-3 = test system: SK-OV-3
HCT-15 = test system: HCT-15
LOX IMVI = test system: LOX IMVI
TK-10 = test system: TK-10
A498 = test system: A498

SMILES | GI50 (CCRF-CEM) | GI50 (SW-620) | GI50 (UACC-62) | GI50 (SK-MEL-5) | GI50 (UACC-257) | GI50 (SR) | GI50 (SK-MEL-2) | GI50 (IGROV-1) | GI50 (RXF 393) | GI50 (HOP-92) | GI50 (KM12) | GI50 (SK-OV-3) | GI50 (HCT-15) | GI50 (LOX IMVI) | GI50 (TK-10) | GI50 (A498)
CCN(CC)c1ccc(C(=C2C=CC(=[N+](CC)CC)C=C2)c2ccccc2)cc1 | 0.0121 µM (active) | 0.0291 µM (active) | 0.0451 µM (active) | 0.0166 µM (active) | 0.0472 µM (active) | 0.0224 µM (active) | 0.0279 µM (active) | 0.0689 µM (active) | 0.022 µM (active) | 0.0338 µM (active) | 0.0324 µM (active) | 0.0304 µM (active) | 0.0483 µM | 0.0219 µM (active) | – | –
O=c1c2cc3ccccc3n2c(=O)c2cc3ccccc3n12 | > 100 µM (inactive) | > 100 µM (inactive) | > 100 µM (inactive) | > 100 µM (inactive) | > 100 µM (inactive) | > 100 µM (inactive) | > 100 µM (inactive) | – | > 100 µM (inactive) | > 100 µM (inactive) | 89.5 µM (inactive) | – | > 100 µM | > 100 µM (inactive) | > 100 µM (inactive) | > 100 µM (inactive)
O=P(c1ccccc1)(c1ccccc1)C1CC=C2CCCCCC2C1 (stereo not drawn) | 23.6 µM (inactive) | > 10 µM (inactive) | 23.9 µM (inactive) | 19.2 µM (inactive) | 25 µM (inactive) | – | 29.9 µM (inactive) | 37.6 µM (inactive) | 28.8 µM (inactive) | 11 µM (inactive) | 38.5 µM (inactive) | 36.9 µM (inactive) | 37.2 µM | 26.1 µM (inactive) | 58.7 µM (inactive) | 35.9 µM (inactive)
Cc1nc2ccccc2c(=O)n1-c1ccccc1I | > 100 µM (inactive) | > 100 µM (inactive) | > 100 µM (inactive) | > 100 µM (inactive) | > 100 µM (inactive) | > 100 µM (inactive) | > 100 µM (inactive) | > 100 µM (inactive) | – | – | – | > 100 µM (inactive) | > 100 µM | – | > 100 µM (inactive) | > 100 µM (inactive)
O=c1c2cc(Br)ccc2[nH]c(=S)n1-c1ccc(Br)cc1 | – | > 100 µM (inactive) | – | – | > 100 µM (inactive) | > 100 µM (inactive) | 87.7 µM (inactive) | > 100 µM (inactive) | > 100 µM (inactive) | 23 µM (inactive) | > 100 µM (inactive) | – | > 100 µM | 70.6 µM (inactive) | > 100 µM (inactive) | > 100 µM (inactive)
O=CCCCC(Sc1ccccc1)Sc1ccccc1 | 12 µM (inactive) | 11.4 µM (inactive) | 7.67 µM (inactive) | 15.8 µM (inactive) | 21.1 µM (inactive) | 15.6 µM (inactive) | 20.2 µM (inactive) | 19.9 µM (inactive) | > 10 µM (inactive) | – | 33 µM (inactive) | 18.7 µM (inactive) | 15.7 µM | 13.7 µM (inactive) | 32.4 µM (inactive) | 38.8 µM (inactive)
COC(=O)C(=O)C(C#N)c1ccc(CC#N)cc1 (stereo not drawn) | > 100 µM (inactive) | > 100 µM (inactive) | > 100 µM (inactive) | – | > 100 µM (inactive) | > 100 µM (inactive) | > 100 µM (inactive) | > 100 µM (inactive) | – | > 100 µM (inactive) | > 100 µM (inactive) | > 100 µM (inactive) | > 100 µM | > 100 µM (inactive) | > 100 µM (inactive) | –
CC1(C)OC(=O)C(=C2CCC(C(=O)Nc3cccc(C(F)(F)F)c3)N2)C(=O)O1 (stereo not drawn) | 44.8 µM (inactive) | > 100 µM (inactive) | 45.2 µM (inactive) | 30.1 µM (inactive) | 40.3 µM (inactive) | – | > 100 µM (inactive) | > 100 µM (inactive) | 84.1 µM (inactive) | 56.2 µM (inactive) | 60.3 µM (inactive) | > 100 µM (inactive) | > 100 µM | 60.4 µM (inactive) | 86.9 µM (inactive) | 66.1 µM (inactive)
CCO[C@@H]1C2C=CC(C2)[C@H]1[N+](=O)[O-] (stereo partly drawn) | 36.9 µM (inactive) | > 100 µM (inactive) | > 100 µM (inactive) | > 100 µM (inactive) | > 100 µM (inactive) | – | > 100 µM (inactive) | > 100 µM (inactive) | > 100 µM (inactive) | > 100 µM (inactive) | > 100 µM (inactive) | > 100 µM (inactive) | > 100 µM | > 100 µM (inactive) | > 100 µM (inactive) | > 100 µM (inactive)
O=C[C@]12CC=C3OC4OC5(CCCCC5)OC4[C@H]3[C@H]1C(=O)C=CC2=O (stereo partly drawn) | 2.44 µM (inactive) | 19.3 µM (inactive) | 21.5 µM (inactive) | 17.7 µM (inactive) | 21.1 µM (inactive) | 2.52 µM (inactive) | 33.7 µM (inactive) | – | 12.6 µM (inactive) | – | 29.4 µM (inactive) | 45.8 µM (inactive) | 18.7 µM | – | 35.1 µM (inactive) | > 100 µM (inactive)
